Each block holds one compound with its values, some of them ahead of it.
Tests used:
B1 bradykinin receptor [1] = target: T1, B1 bradykinin receptor (Homo sapiens, UniProt P46663); test: Binding affinity to human bradykinin B1 receptor expressed in CHO cells; assay type: cell-based
T1 sequence (P46663 whole entry): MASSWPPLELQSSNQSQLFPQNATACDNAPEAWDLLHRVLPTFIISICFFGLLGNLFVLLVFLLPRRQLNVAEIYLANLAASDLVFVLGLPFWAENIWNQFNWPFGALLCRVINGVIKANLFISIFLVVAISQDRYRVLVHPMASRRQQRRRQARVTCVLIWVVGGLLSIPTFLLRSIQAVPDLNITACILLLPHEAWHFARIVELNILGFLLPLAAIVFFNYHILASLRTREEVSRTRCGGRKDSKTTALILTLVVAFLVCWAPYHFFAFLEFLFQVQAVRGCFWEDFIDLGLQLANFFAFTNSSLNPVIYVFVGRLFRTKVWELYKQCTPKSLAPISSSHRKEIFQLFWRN

Cytochrome P450 2D6 = Cytochrome P450 2D6 (Homo sapiens, UniProt P10635); test: Inhibition of CYP2D6; assay type: ADME
Sequence of Cytochrome P450 2D6 (P10635 whole entry): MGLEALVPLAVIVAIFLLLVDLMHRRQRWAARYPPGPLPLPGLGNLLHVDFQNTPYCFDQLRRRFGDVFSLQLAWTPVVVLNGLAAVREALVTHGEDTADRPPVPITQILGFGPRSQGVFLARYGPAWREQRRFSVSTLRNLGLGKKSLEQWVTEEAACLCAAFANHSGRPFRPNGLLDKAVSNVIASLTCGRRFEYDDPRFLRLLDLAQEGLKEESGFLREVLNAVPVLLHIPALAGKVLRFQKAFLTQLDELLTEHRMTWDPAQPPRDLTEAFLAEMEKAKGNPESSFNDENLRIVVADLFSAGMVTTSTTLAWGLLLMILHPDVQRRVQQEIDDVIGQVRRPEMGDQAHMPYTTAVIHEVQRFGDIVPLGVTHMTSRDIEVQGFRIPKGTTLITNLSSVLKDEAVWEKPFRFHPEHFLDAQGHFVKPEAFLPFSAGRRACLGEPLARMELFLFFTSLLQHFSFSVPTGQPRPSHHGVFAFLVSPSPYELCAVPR

Cytochrome P450 3A4 = Cytochrome P450 3A4 (Homo sapiens, UniProt P08684); test: Inhibition of CYP3A4; assay type: ADME
Sequence of Cytochrome P450 3A4 (P08684 whole entry): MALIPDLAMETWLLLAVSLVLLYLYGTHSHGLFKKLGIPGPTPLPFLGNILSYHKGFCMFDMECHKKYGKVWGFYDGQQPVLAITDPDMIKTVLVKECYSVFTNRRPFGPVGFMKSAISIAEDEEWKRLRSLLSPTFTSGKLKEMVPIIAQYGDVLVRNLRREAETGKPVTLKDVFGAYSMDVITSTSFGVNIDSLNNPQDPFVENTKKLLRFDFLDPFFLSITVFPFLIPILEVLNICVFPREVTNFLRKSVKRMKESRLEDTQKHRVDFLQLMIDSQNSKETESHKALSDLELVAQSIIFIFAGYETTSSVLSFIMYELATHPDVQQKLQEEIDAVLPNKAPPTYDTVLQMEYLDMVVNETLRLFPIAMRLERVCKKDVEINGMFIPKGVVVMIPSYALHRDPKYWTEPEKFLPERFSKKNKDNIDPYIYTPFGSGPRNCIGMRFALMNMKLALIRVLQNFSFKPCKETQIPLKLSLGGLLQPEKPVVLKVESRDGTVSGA

LLC-PK1 = test: Ratio of permeability from basolateral to apical over apical to basolateral side of pig MDR1 transfected LLC-PK1 cells; assay type: ADME, cell-based, Sus scrofa
[2] = Volume of distribution in Sprague-Dawley rat at 10 mg/kg, po or 2 mg/kg, iv; assay type: ADME, organism-based; conditions: in vivo, read-out: Vdss
[3] = Volume of distribution in Beagle dog at 0.25 mg/kg, iv; assay type: ADME, organism-based, Canis lupus familiaris; parameters: dose 0.25 mg/kg, route intravenous; conditions: in vivo
[4] = Clearance in Sprague-Dawley rat at 10 mg/kg, po or 2 mg/kg, iv; assay type: ADME, organism-based; conditions: in vivo
Cytochrome P450 2C9 = Cytochrome P450 2C9 (Homo sapiens, UniProt P11712); test: Inhibition of CYP2C9; assay type: ADME
Sequence of Cytochrome P450 2C9 (P11712 whole entry): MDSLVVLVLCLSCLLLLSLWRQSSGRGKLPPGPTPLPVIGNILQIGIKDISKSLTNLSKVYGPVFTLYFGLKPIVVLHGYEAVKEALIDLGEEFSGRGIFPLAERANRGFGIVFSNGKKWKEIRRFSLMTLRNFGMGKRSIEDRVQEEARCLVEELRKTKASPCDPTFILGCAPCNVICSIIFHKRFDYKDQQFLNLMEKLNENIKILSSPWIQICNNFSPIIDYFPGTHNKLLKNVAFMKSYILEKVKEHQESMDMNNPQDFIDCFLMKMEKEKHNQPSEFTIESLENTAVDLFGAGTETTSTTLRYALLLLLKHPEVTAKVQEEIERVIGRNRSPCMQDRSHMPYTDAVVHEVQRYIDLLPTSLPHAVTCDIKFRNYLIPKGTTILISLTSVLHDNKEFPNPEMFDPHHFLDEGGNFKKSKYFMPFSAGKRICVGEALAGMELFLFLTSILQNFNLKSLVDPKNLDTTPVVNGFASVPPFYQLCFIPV

B1 bradykinin receptor [5] = target: T1, B1 bradykinin receptor; test: […] human bradykinin B1 receptor by FLIPR assay
[6] = Oral bioavailability in Sprague-Dawley rat at 10 mg/kg; assay type: ADME, organism-based; conditions: in vivo
[7] = Half life in Beagle dog at 0.25 mg/kg, iv; assay type: ADME, organism-based, Canis lupus familiaris; parameters: dose 0.25 mg/kg, route intravenous; conditions: in vivo
[8] = Clearance in Beagle dog at 0.25 mg/kg, iv; assay type: ADME, organism-based, Canis lupus familiaris; parameters: dose 0.25 mg/kg, route intravenous; conditions: in vivo
[9] = Apparent permeability across pig LLC-PK1 cells; assay type: ADME, cell-based, Sus scrofa
[10] = Half life in Sprague-Dawley rat at 10 mg/kg, po or 2 mg/kg, iv; assay type: ADME, organism-based; conditions: in vivo
[11] = Oral bioavailability in rhesus monkey at 1 mg/kg; assay type: ADME, organism-based, Macaca mulatta; conditions: in vivo
[12] = Clearance in Beagle dog at 3 mg/kg, po or 1 mg/kg, iv by cassette dosing; assay type: ADME, organism-based, Canis lupus familiaris; conditions: in vivo
[13] = Half life in rhesus monkey at 1 mg/kg, po or 1 mg/kg, iv; assay type: ADME, organism-based, Macaca mulatta; conditions: in vivo
[14] = Oral bioavailability in Beagle dog at 3 mg/kg by cassette dosing; assay type: ADME, organism-based, Canis lupus familiaris; conditions: in vivo
[15] = Clearance in rhesus monkey at 1 mg/kg, po or 1 mg/kg, iv; assay type: ADME, organism-based, Macaca mulatta; conditions: in vivo
[16] = Half life in Beagle dog at 3 mg/kg, po or 1 mg/kg, iv by cassette dosing; assay type: ADME, organism-based, Canis lupus familiaris; conditions: in vivo

Structure (SMILES): COC(=O)c1c(F)cccc1-c1ccc(CNC(=O)[C@](C)(O)C(F)(F)F)c(F)c1
- Ki (B1 bradykinin receptor [1]): 579 nM

Structure (SMILES): CCC(O)(CC)C(=O)NCc1ccc(-c2cccc(F)c2C(=O)OC)cc1F
- Ki (B1 bradykinin receptor [1]): 1090 nM

Structure (SMILES): COC(=O)c1c(F)cccc1-c1ccc(CNC(=O)[C@H](O)C(F)(F)F)c(F)c1
- Ki (B1 bradykinin receptor [1]): 479 nM

Structure (SMILES): COC(=O)c1c(F)cccc1-c1ccc(CNC(=O)[C@@H](C)O)c(F)c1
- Ki (B1 bradykinin receptor [1]): 1050 nM

Structure (SMILES): COC(=O)c1c(F)cccc1-c1ccc(CNC(=O)C(C)(C)O)c(F)c1
- Ki (B1 bradykinin receptor [1]): 125 nM

Structure (SMILES): Cc1nc(-c2c(F)cc(Cl)cc2-c2cnc([C@@H](C)NC(=O)[C@@](C)(O)C(F)(F)F)c(F)c2)no1
- bioavailability [11]: 52%
- clearance [12]: 0.45 mL/min/kg
- half-life [13]: 1.3 h
- Vd [2]: 0.52 L/kg
- bioavailability [14]: 84%
- Vd [3]: 0.51 L/kg
- clearance [4]: 4.9 mL/min/kg
- clearance [15]: 7.1 mL/min/kg
- bioavailability [6]: 34%
- half-life [7]: 17 h
- half-life [16]: 11 h
- clearance [8]: 0.42 mL/min/kg
- Papp [9]: 27 ×10⁻⁶ cm/s
- half-life [10]: 2 h

Structure (SMILES): COC(=O)c1c(F)cccc1-c1ccc(CNC(=O)C2(NC(=O)C(F)(F)F)CC2)c(F)c1
- Ratio (LLC-PK1): 4.1

Structure (SMILES): COC(=O)c1c(F)cccc1-c1ccc(CNC(=O)CO)c(F)c1
- Ki (B1 bradykinin receptor [1]): 516 nM

Structure (SMILES): COC(=O)c1c(F)cccc1-c1ccc(CNC(=O)[C@H](C)O)c(F)c1
- Ki (B1 bradykinin receptor [1]): 660 nM

Structure (SMILES): COC(=O)c1c(F)cccc1-c1ccc(CNC(=O)[C@@H](O)C(F)(F)F)c(F)c1
- Ki (B1 bradykinin receptor [1]): 109 nM

Structure (SMILES): COC(=O)c1c(F)cccc1-c1ccc(CNC(=O)[C@@H](O)C(C)(C)C)c(F)c1
- Ki (B1 bradykinin receptor [1]): 88.5 nM

Structure (SMILES): COC(=O)c1c(F)cccc1-c1ccc(CNC(=O)C(O)(C(F)(F)F)C(F)(F)F)c(F)c1
- Ki (B1 bradykinin receptor [1]): 95 nM

The next lines start with the values.

- Ki (B1 bradykinin receptor [1]): 71.5 nM
Structure (SMILES): COC(=O)c1c(F)cccc1-c1ccc(CNC(=O)[C@@H](O)C(C)C)c(F)c1

- IC50 (Cytochrome P450 2D6): > 10000 nM
- IC50 (Cytochrome P450 3A4): > 10000 nM
- Ratio (LLC-PK1): 2.8
- Vd [2]: 0.54 L/kg
- Vd [3]: 0.47 L/kg
- clearance [4]: 1 mL/min/kg
- IC50 (Cytochrome P450 2C9): > 10000 nM
- IC50 (B1 bradykinin receptor [5]): 4.9 nM
- bioavailability [6]: 53%
- half-life [7]: 38 h
- clearance [8]: 0.22 mL/min/kg
- Papp [9]: 36 ×10⁻⁶ cm/s
- Ki (B1 bradykinin receptor [1]): 0.59 nM
- half-life [10]: 27 h
Structure (SMILES): C[C@@H](NC(=O)[C@@](C)(O)C(F)(F)F)c1ncc(-c2cc(Cl)cc(F)c2-c2nnn(C)n2)cc1F

- Ratio (LLC-PK1): 1.6
- Vd [2]: 1.2 L/kg
- Vd [3]: 0.73 L/kg
- clearance [4]: 7.8 mL/min/kg
- IC50 (B1 bradykinin receptor [5]): 3.93 nM
- bioavailability [6]: 47%
- half-life [7]: 3.6 h
- clearance [8]: 3.2 mL/min/kg
- Papp [9]: 23 ×10⁻⁶ cm/s
- Ki (B1 bradykinin receptor [1]): 0.35 nM
- half-life [10]: 5.6 h
Structure (SMILES): COC(=O)c1c(Cl)cc(Cl)cc1-c1cnc([C@@H](C)NC(=O)[C@@](C)(O)C(F)(F)F)c(F)c1

- Ratio (LLC-PK1): 1.6
- Vd [3]: 1.2 L/kg
- IC50 (B1 bradykinin receptor [5]): 43.6 nM
- half-life [7]: 1.4 h
- clearance [8]: 16 mL/min/kg
- Papp [9]: 32 ×10⁻⁶ cm/s
- Ki (B1 bradykinin receptor [1]): 24.5 nM
Structure (SMILES): COC(=O)c1c(F)cccc1-c1ccc(CNC(=O)[C@@](C)(O)C(F)(F)F)c(F)c1

- Ratio (LLC-PK1): 1.3
- Vd [2]: 1 L/kg
- Vd [3]: 0.66 L/kg
- clearance [4]: 20 mL/min/kg
- IC50 (B1 bradykinin receptor [5]): 6.65 nM
- bioavailability [6]: 21%
- half-life [7]: 9.5 h
- clearance [8]: 0.91 mL/min/kg
- Papp [9]: 33 ×10⁻⁶ cm/s
- Ki (B1 bradykinin receptor [1]): 0.79 nM
- half-life [10]: 3.9 h
Structure (SMILES): Cc1noc(-c2c(Cl)cc(Cl)cc2-c2cnc([C@@H](C)NC(=O)[C@@](C)(O)C(F)(F)F)c(F)c2)n1

- Ratio (LLC-PK1): 1.7
- Vd [2]: 1.3 L/kg
- Vd [3]: 1.2 L/kg
- clearance [4]: 22 mL/min/kg
- IC50 (B1 bradykinin receptor [5]): 6.65 nM
- bioavailability [6]: 32%
- half-life [7]: 15 h
- clearance [8]: 1 mL/min/kg
- Papp [9]: 35 ×10⁻⁶ cm/s
- Ki (B1 bradykinin receptor [1]): 0.66 nM
- half-life [10]: 1.2 h
Structure (SMILES): Cc1noc(-c2c(F)cc(Cl)cc2-c2cnc([C@@H](C)NC(=O)[C@@](C)(O)C(F)(F)F)c(F)c2)n1

- Ki (B1 bradykinin receptor [1]): 59.1 nM
Structure (SMILES): COC(=O)c1c(F)cccc1-c1ccc(CNC(=O)C2(O)CC2)c(F)c1

- Ratio (LLC-PK1): 1.8
- Vd [2]: 0.86 L/kg
- Vd [3]: 0.74 L/kg
- clearance [4]: 2.4 mL/min/kg
- bioavailability [6]: 71%
- half-life [7]: 9.8 h
- clearance [8]: 1.3 mL/min/kg
- Papp [9]: 26 ×10⁻⁶ cm/s
- Ki (B1 bradykinin receptor [1]): 0.43 nM
- half-life [10]: 4.9 h
Structure (SMILES): C[C@@H](NC(=O)[C@@](C)(O)C(F)(F)F)c1ncc(-c2cc(Cl)cc(F)c2-c2nnn(C)n2)cc1Cl

- Ki (B1 bradykinin receptor [1]): 83.5 nM
Structure (SMILES): COC(=O)c1c(F)cccc1-c1ccc(CNC(=O)[C@@](C)(O)C(C)C)c(F)c1

From ChEMBL document CHEMBL1141559, “Alpha-hydroxy amides as a novel class of bradykinin B1 selective antagonists” (Bioorg Med Chem Lett, 2008)
